From PubChem BioAssay AID328 (DTP/NCI, 2004)
Values joined by “and” are separate entries in the source; they are usually repeats but may differ in a detail not shown here. Identical values can stand only once. Inconclusive results and toxic doses are left out. The calls were made as follows: active = survival T/C of 150% or more; inactive = T/C below 125% in these data.

System: BDF1 mice, P388 leukemia ip, median survival T/C
Assay: NCI In Vivo Anticancer Drug Screen. Data for tumor model P388 Leukemia (intraperitoneal) in B6D2F1 (BDF1) mice
Conditions: endpoint: median survival time, higher = longer survival
In short: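 Reported as T/C, where T is the survival measurement in dosed animals and C the same measurement in vehicle controls.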

[1] = dose: 50.0 mg/kg/injection, schedule: Q01DX009 (ip), vehicle: saline with Tween-80
[2] = dose: 100.0 mg/kg/injection, schedule: Q01DX009 (ip), vehicle: saline with Tween-80
[3] = dose: 200.0 mg/kg/injection, schedule: Q01DX009 (ip), vehicle: saline with Tween-80
[4] = dose: 0.78 mg/kg/injection, schedule: Q01DX009 (ip), vehicle: water
[5] = dose: 1.56 mg/kg/injection, schedule: Q01DX009 (ip), vehicle: water
[6] = dose: 3.12 mg/kg/injection, schedule: Q01DX009 (ip), vehicle: water
[7] = dose: 6.25 mg/kg/injection, schedule: Q01DX009 (ip), vehicle: water
[8] = dose: 12.5 mg/kg/injection, schedule: Q01DX009 (ip), vehicle: water
[9] = dose: 25.0 mg/kg/injection, schedule: Q01DX009 (ip), vehicle: water
[10] = dose: 50.0 mg/kg/injection, schedule: Q01DX009 (ip), vehicle: water
[11] = dose: 50.0 mg/kg/injection, schedule: Q04DX003 (ip), vehicle: water
[12] = dose: 100.0 mg/kg/injection, schedule: Q01DX009 (ip), vehicle: water
[13] = dose: 100.0 mg/kg/injection, schedule: Q04DX003 (ip), vehicle: water
[14] = dose: 200.0 mg/kg/injection, schedule: Q01DX009 (ip), vehicle: water
[15] = dose: 200.0 mg/kg/injection, schedule: Q04DX003 (ip), vehicle: water
[16] = dose: 25.0 mg/kg/injection, schedule: Q01DX009 (ip), vehicle: saline with Tween-80
[17] = dose: 100.0 mg/kg/injection, schedule: Q04DX003 (ip), vehicle: Klucel (hydroxypropylcellulose) (HPC)
[18] = dose: 200.0 mg/kg/injection, schedule: Q04DX003 (ip), vehicle: Klucel (hydroxypropylcellulose) (HPC)
[19] = dose: 400.0 mg/kg/injection, schedule: Q04DX003 (ip), vehicle: Klucel (hydroxypropylcellulose) (HPC)
[20] = dose: 100.0 mg/kg/injection, schedule: Q04DX003 (ip), vehicle: saline with Tween-80
[21] = dose: 200.0 mg/kg/injection, schedule: Q04DX003 (ip), vehicle: saline with Tween-80
[22] = dose: 200.0 mg/kg/injection, schedule: Q04DX003 (ip), vehicle: saline
[23] = dose: 400.0 mg/kg/injection, schedule: Q04DX003 (ip), vehicle: saline
[24] = dose: 100.0 mg/kg/injection, schedule: Q04DX003 (ip), vehicle: saline
[25] = dose: 50.0 mg/kg/injection, schedule: Q04DX003 (ip), vehicle: saline
[26] = dose: 25.0 mg/kg/injection, schedule: Q01DX009 (ip), vehicle: saline
[27] = dose: 50.0 mg/kg/injection, schedule: Q01DX009 (ip), vehicle: saline
[28] = dose: 100.0 mg/kg/injection, schedule: Q01DX009 (ip), vehicle: saline

Measured: T/C

CCCN(CCC)CC(O)c1cc2c(Cl)cc(Cl)cc2c2cc(C(F)(F)F)ccc12 (centres undefined)
inactive: [1] 100 % of control | [2] 100 % of control | [3] 106 % of control

c1ccc(CN(CCNc2ccccc2)c2ccccc2)cc1
inactive: [4] 106 % of control | [5] 104 % of control | [6] 108 % of control | [7] 104 % of control | [8] 106 % of control | [9] 92 % of control | [10] 92 % of control | [11] 100 % of control | [12] 115 % of control | [13] 98 % of control | [14] 97 % of control | [15] 103 % of control

O=C(O)c1ccccc1P12(OC(=O)c3ccccc31)OC(=O)c1ccccc12
inactive: [16] 99 % of control | [1] 99 % of control | [2] 90 % of control

CC(=O)NC1C([Se][As](C)C)OC(COC(C)=O)C(OC(C)=O)C1OC(C)=O (centres undefined)
inactive: dose: 6.25 mg/kg/injection, schedule: Q01DX009 (ip), vehicle: saline with Tween-80 116 % of control | [16] 115 % of control

O=C1/C(=C/c2ccccc2)CCCC1/C=C/c1ccccc1 (centres undefined)
inactive: [17] 100 % of control | [18] 104 % of control | [19] 104 % of control

O=C1CCC23/C=C/C(=O)NCCCCNCCCNC(=O)/C=C/c4ccc(c2c4)OC3C1 (centres undefined)
inactive: dose: 50.0 mg/kg/injection, schedule: Q04DX003 (ip), vehicle: saline with Tween-80 105 % of control | [20] 105 % of control | [21] 105 % of control

CN(C)CCSC1=CC(=O)c2ccccc2C1=O
inactive: dose: 0.19 mg/kg/injection, schedule: Q01DX009 (ip), vehicle: water 116 % of control | dose: 0.19 mg/kg/injection, schedule: Q04DX003 (ip), vehicle: water 95 % of control | dose: 0.39 mg/kg/injection, schedule: Q01DX009 (ip), vehicle: water 109 % of control | dose: 0.39 mg/kg/injection, schedule: Q04DX003 (ip), vehicle: water 105 % of control | [4] 110 % of control | dose: 0.78 mg/kg/injection, schedule: Q04DX003 (ip), vehicle: water 104 % of control | [5] 109 % of control | dose: 1.56 mg/kg/injection, schedule: Q04DX003 (ip), vehicle: water 106 % of control | dose: 3.12 mg/kg/injection, schedule: Q04DX003 (ip), vehicle: water 95 % of control

CCOC(=O)/C(N=O)=C(\O)c1ccc2ccccc2n1
inactive: [6] 106 % of control | [7] 98 % of control and 99 % of control and 103 % of control | [8] 111 % of control and 123 % of control | [9] 94 % of control and 104 % of control and 106 % of control | dose: 25.0 mg/kg/injection, schedule: Q04DX003 (ip), vehicle: water 97 % of control | [10] 100 % of control and 103 % of control | [11] 120 % of control | [12] 99 % of control | [13] 105 % of control | [14] 91 % of control | [15] 97 % of control | dose: 400.0 mg/kg/injection, schedule: Q01DX009 (ip), vehicle: water 110 % of control | dose: 400.0 mg/kg/injection, schedule: Q04DX003 (ip), vehicle: water 92 % of control

CCCC(O)(CCC)CC1=NC(C)(C)CO1
inactive: dose: 75.0 mg/kg/injection, schedule: Q04DX003 (ip), vehicle: saline sonified 110 % of control | dose: 150.0 mg/kg/injection, schedule: Q04DX003 (ip), vehicle: saline sonified 105 % of control | dose: 300.0 mg/kg/injection, schedule: Q04DX003 (ip), vehicle: saline sonified 100 % of control

Nc1ccc2c(-c3ccc([N+](=O)[O-])cc3)cc(=O)[nH]c2n1
inactive: [22] 100 % of control | [23] 97 % of control

CC(C)(C)CC(C)(C)c1ccc(O)cc1
inactive: [24] 100 % of control | [22] 115 % of control | [23] 120 % of control

Cc1ccc(Nc2c([N+](=O)[O-])c(=O)n(C)c(=O)n2C)cc1C
inactive: [1] 103 % of control | [2] 96 % of control | [3] 96 % of control

N#Cc1ccc(C(=O)/C=C/c2ccc(OCc3ccccc3)cc2)cc1
inactive: [1] 91 % of control | [2] 89 % of control | [3] 91 % of control

O=C(O)c1ccc(NC(=O)C(F)(F)F)cc1
inactive: dose: 25.0 mg/kg/injection, schedule: Q04DX003 (ip), vehicle: saline sonified 86 % of control | dose: 100.0 mg/kg/injection, schedule: Q04DX003 (ip), vehicle: saline sonified 95 % of control

O=C(/C=C/c1cccc2ccccc12)c1ccc(Cl)cc1
inactive: dose: 100.0 mg/kg/injection, schedule: Q01DX009 (ip), vehicle: Klucel (hydroxypropylcellulose) (HPC) 109 % of control | [17] 104 % of control | dose: 200.0 mg/kg/injection, schedule: Q01DX009 (ip), vehicle: Klucel (hydroxypropylcellulose) (HPC) 95 % of control | [18] 104 % of control | [19] 95 % of control

CN1CCC=C(C(=O)N(c2ccccc2)c2ccccc2)C1
inactive: [25] 95 % of control | [24] 100 % of control | [22] 100 % of control

CC12CCC(O)CC1CCC1C2CCC2(C)C(c3ccc(=O)oc3)C(O)C3OC132 (centres undefined)
inactive: dose: 3.5 mg/kg/injection, schedule: Q01DX009 (ip), vehicle: Klucel (hydroxypropylcellulose) (HPC) 100 % of control | dose: 7.0 mg/kg/injection, schedule: Q01DX009 (ip), vehicle: Klucel (hydroxypropylcellulose) (HPC) 102 % of control

CC(C)(O)c1cccc(C(=O)O)c1Sc1ccccc1
inactive: dose: 100.0 mg/kg/injection, schedule: Q01DX001 (ip), vehicle: saline with Tween-80 100 % of control | dose: 200.0 mg/kg/injection, schedule: Q01DX001 (ip), vehicle: saline with Tween-80 95 % of control | dose: 400.0 mg/kg/injection, schedule: Q01DX001 (ip), vehicle: saline with Tween-80 101 % of control

C=CCSc1ncnc2c1ncn2C1OC(CO)C(O)C1O (centres undefined)
inactive: [2] 113 % of control

CN(C)Cc1c[nH]c2nccnc12
inactive: dose: 3.12 mg/kg/injection, schedule: Q01DX009 (ip), vehicle: saline 95 % of control | dose: 6.25 mg/kg/injection, schedule: Q01DX009 (ip), vehicle: saline 109 % of control | dose: 12.5 mg/kg/injection, schedule: Q01DX009 (ip), vehicle: saline 101 % of control | [26] 93 % of control | dose: 25.0 mg/kg/injection, schedule: Q04DX003 (ip), vehicle: saline 99 % of control | [27] 100 % of control | [25] 100 % of control and 101 % of control | [28] 100 % of control | [24] 92 % of control and 100 % of control

NC(=O)CNCCS(=O)(=O)O
inactive: [28] 91 % of control | [24] 100 % of control | dose: 200.0 mg/kg/injection, schedule: Q01DX009 (ip), vehicle: saline 87 % of control | [22] 109 % of control | [23] 104 % of control

CC1=NNC(=O)/C1=C\c1ccccc1
inactive: [16] 103 % of control | [1] 99 % of control | [2] 108 % of control

COc1cc([N+](=O)[O-])c(C)cc1NCc1ccc(OC)c(OC)c1
inactive: [26] 100 % of control | [27] 99 % of control | [28] 94 % of control

O=C(c1ccccn1)C12CC3CC(CC(C3)C1)C2
inactive: [20] 95 % of control | [21] 105 % of control | dose: 400.0 mg/kg/injection, schedule: Q04DX003 (ip), vehicle: saline with Tween-80 95 % of control

COC1C(O)C(OC2CCC3(C)C(CCC4C3CCC3(C)C(C5=CC(=O)OC5)CCC43O)C2)OC(C)C1OC(C)=O (centres undefined)
inactive: dose: 9.6 mg/kg/injection, schedule: Q01DX009 (ip), vehicle: saline with Tween-80 115 % of control | dose: 22.0 mg/kg/injection, schedule: Q01DX009 (ip), vehicle: saline with Tween-80 108 % of control | dose: 33.0 mg/kg/injection, schedule: Q01DX009 (ip), vehicle: saline with Tween-80 100 % of control
